Assay results: patent US20200206198A1, “CFTR CHANNEL ACTIVATOR FOR USE IN THE TREATMENT AND/OR PREVENTION OF GLUTEN SENSITIVITY CONDITIONS” (priority 2017, published 2020)

What was measured:
[1] = system: rhNBD1 and its double mutants F400A/E403A and P439A/P477A; test: Native polyacrylamide electrophoresis (BN-PAGE) of biotinylated peptide with rhNBD1; assay type: binding, human
Procedure: Peptide-protein interactions were further studied exploiting a different biochemical strategy: recombinant NBD1, both wild type and/or its mutants, were incubated at 4° C. for 30′ in 40 mM Tris pH 7.5 in the presence of the biotinylated P31-43 peptide unless otherwise indicated and resolved in native conditions by BN-PAGE (Novex, Invitrogen). The complexes were then blotted onto PVDF membrane in accordance with the manufacturer's instructions and the interacting partners were detected with streptavidin-HRP antibody (PerkinElmer).
e-f, Blue native PAGE western blotting of P31-43 and P57-68 biotinylated peptides in the presence of rhNBD1 (e), and of WT and double NBD1 mutants in the presence of biotinylated P31-43 (0. g, SPR analysis of 4QA peptide on rhNBD1 covalently bound to CMS sensor chip. h-i, treatment of Caco-2 cells with P31-43 or P31-43 modified in different Q or P positions. (h) Assessment in Ussing chambers of CFTR-dependent Cl^− secretion measured by forskolin-induced (Fsk) increase of the chloride current (Isc (μA/cm^2); quantification of the peak CFTR Inhibitor 172 (CFTRinh172)-sensitive Isc (ΔIsc). (i) Assessment of iodide efflux by SPQ fluorescent probe upon stimulation with forskolin (Fsk) expressed as percentage of CFTR function in the presence or absence of peptide challenge. […]

NBD1 ATPase activity = NBD1 ATPase activity (malachite green kit); assay type: biochemical, human
Procedure: The measurement of NBD1 ATPase activity was performed with a malachite green based kit supplied by Sigma (cod. MAK113) in accordance with the manufacturer's instructions. The enzyme activity was measured at 620 nm at room temperature using a Multiskan 96 well plates reader.

[2] = system: PBMC collected from celiac patients; test: Bidimensional co-culture of Caco-2 cells and PBMC from celiac patients; assay type: cell-based, human
Procedure: To translate our findings into the relevant clinical setting, we determined whether CFTR potentiators would prevent the HLA-restricted immune response to gliadin by peripheral blood mononuclear cells (PBMC) collected from celiac patients. PBMC collected from 6 celiac patients and 4 healthy controls, were cultured in the lower compartment of a bidimensional co-culture model in which confluent Caco-2 cells were placed in the upper compartment. Then, Caco-2 cells were challenged with PT gliadin or with a combination of P31-43 and P57-68 (or P57-68 alone as a negative control), as described, and IFN-γ and IL-10 were quantified in the supernatants from the lower compartment.
Five ml of peripheral blood have been withdrawn from 8 untreated celiac patients (females and males, age range 8-25 years) and from 3 DQ2+ positive not CD affected controls (healthy first-grade relatives of celiac patients). The Ethics Committee of ISS approved the protocol (# CE/12/341), and patients or patients' parents signed the informed consent. Peripheral blood mononuclear cells were isolated using lympholite (Cederlane, UK) density gradient overlaid by heparin blood diluted 1:1 in PBS and centrifuged (20 min at 900 rpm). After being washed three times, PBMCs were resuspended in complete RPMI 1640 supplemented with 25 mM HEPES, 10% (v/v) heat-inactivated FBS, 100 U/ml penicillin, […] streptomycin, and 1% 2 mM 1-glutamine.
For transwell experiments using polarized Caco-2 cells, 3 weeks prior to the experiment, Caco-2 cells were seeded at a density of 80×10^3 cells×cm^2 on 0.4-μm, 1-cm^2 tissue culture inserts (Costar, Corning Incorporated). Transwell cultures (12-well) with confluent Caco-2 monolayers were used for co-culture with 1 ml PBMC (1.5×10^6 cells/ml) using PBMC medium and kept in an incubator at 37° C. and 5% CO2. Cells were allowed to settle for 1 h before the starting of the experiment. The permeability of the epithelial monolayer was assessed just before the experiments, measuring the transwell electrical resistance between the upper and lower compartments. […]

## α-gliadin peptide LGQQQPFPPQQPY (SEQ ID 1), induces an enterocyte stress response (P31-43 sequence of alpha-gliadin)
[1]
  binding to native rhNBD1: bound to rhNBD1
  binding to rhNBD1 double mutants F400A/E403A and P439A/P477A: attenuated for both rhNBD1 mutants
NBD1 ATPase activity
  IC50: ~50 µM

## CC(C)(C)c1cc(C(C)(C)C)c(NC(=O)c2c[nH]c3ccccc3c2=O)cc1O [VX-770, N-(2,4-di-tert-butyl-5-hydroxyphenyl)-4-oxo-1,4-dihydroquinoline-3-carboxamide]
[2]; celiac PBMC / Caco-2 co-culture
  effect on IFN-γ production induced by the combination of peptides: prevented the production of IFN-γ
[2]; celiac PBMC / Caco-2 co-culture, p<0.01
  IL-10 levels: restored IL-10 levels
[2]; p<0.001 vs peptide combination
  effect on IL-15 accumulation in the lower compartment: prevented
